Source: patent US5385909A, “Heterocyclic esters of rapamycin” (American Home Products Corporation, priority 1993, dated 1995)
Where two headings read alike, the source gives them in different places.

Key:
[1] = test system: pinch skin graft; assay: Pinch skin graft survival test procedure; assay type: in vivo, male BALB/c donors, male C3 H(H-2K) recipients (mice); conditions: 4 mg/kg; intraperitoneally or orally; untreated grafts usually rejected within 6-7 days
Procedure: (§1) Immunosuppressive activity for representative compounds of this invention was evaluated in an in vitro standard pharmacological test procedure to measure lymphocyte proliferation (LAF) and in three in vivo standard pharmacological test procedures. The pinch skin graft test procedure measures the immunosuppressive activity of the compound tested as well as the ability of the compound tested to inhibit or treat transplant rejection. The adjuvant arthritis standard pharmacological test procedure, which measures the ability of the compound tested to inhibit immune mediated inflammation. The adjuvant arthritis test procedure is a standard pharmacological test procedure for rheumatoid arthritis. Representative compounds of this invention were also evaluated in a heart allograft standard pharmacological test procedure which measures immunosuppressive activity of the compound tested as well as the ability of the compound tested to inhibit or treat transplant rejection. The procedures for these standard pharmacological test procedures are provided below.
Representative compounds of this invention were also evaluated in an in vivo test procedure designed to determine the survival time of pinch skin graft from male BALB/c donors transplanted to male C3 H(H-2K) recipients. The method is adapted from Billingham R. E. and Medawar P. B., J. Exp. Biol. 28:385-402, (1951). Briefly, a pinch skin graft from the donor was grafted on the dorsum of the recipient as a allograft, and an isograft was used as control in the same region. The recipients were treated with either varying concentrations of test compounds intraperitoneally or orally. Rapamycin was used as a test control. Untreated recipients serve as rejection control. The graft was monitored daily and observations were recorded until the graft became dry and formed a blackened scab. This was considered as the rejection day. The mean graft survival time (number of days±S.D.) of the drug treatment group was compared with the control group. […] Results are expressed as the mean survival time in days. Untreated (control) pinch skin grafts are usually rejected within 6-7 days. Compounds were tested using a dose of 4 mg/kg.

[2] = test system: heart allograft; assay: Heterotropic heart allograft standard pharmacological test procedure; assay type: in vivo, BN rat neonate donors, male Lewis rat recipients; conditions: 300 μg/day, i.p.; untreated rejected in about 9-10 days
Procedure: as §1
The ability of the compounds of this invention to induce immunosuppression and inhibit or treat transplantation rejection was evaluated in a heterotropic heart allograft standard pharmacological test procedure that emulates transplantation rejection that occurs in humans. The following briefly describes the procedure that was used. […]

[3] = test system: lymphocyte proliferation (thymus cells of normal BALB/c mice); assay: Comitogen-induced thymocyte proliferation procedure (LAF); assay type: cell-based; conditions: Mus musculus, read-out: LAF IC50
Procedure: as §1
The comitogen-induced thymocyte proliferation procedure (LAF) was used as an in vitro measure of the immunosuppressive effects of representative compounds. Briefly, cells from the thymus of normal BALB/c mice are cultured for 72 hours with PHA and IL-1 and pulsed with tritiated thymidine during the last six hours. Cells are cultured with and without various concentrations of rapamycin, cyclosporin A, or test compound. Cells are harvested and incorporated radioactivity is determined. Inhibition of lymphoproliferation is assessed as percent change in counts per minute from non-drug treated controls. For each compound evaluated, rapamycin was also evaluated for the purpose of comparison. An IC50 was obtained for each test compound as well as for rapamycin. […] The results obtained are provided as an IC50.

[4] = test system: adjuvant arthritis, uninjected (left) hind paw inflammation; assay: Adjuvant arthritis standard pharmacological test procedure; assay type: in vivo, male Wistar Lewis rats; conditions: 2 mg/kg, oral, uninjected paw at day 16; for Percent change in adjuvant arthritis versus control: 7 doses day 0-14, more negative = more potent
Procedure: as §1
The adjuvant arthritis standard pharmacological test procedure measures the ability of test compounds to prevent immune mediated inflammation and inhibit or treat rheumatoid arthritis. The following briefly describes the test procedure used. A group of rats (male inbread Wistar Lewis rats) are pre-treated with the compound to be tested (1 h prior to antigen) and then injected with Freud's Complete Adjuvant (FCA) in the right hind paw to induce arthritis. The rats are then orally dosed on a Monday, Wednesday, Friday schedule from day 0-14 for a total of 7 doses. Both hind paws are measured on days 16, 23, and 30. The difference in paw volume (mL) from day 16 to day 0 is determined and a percent change from control is obtained. […] The right hind paw inflammation, on the other hand, is caused by nonspecific inflammation. Compounds were tested at a dose of 2 mg/kg.

[5] = test system: immunosuppression; conditions: cited from earlier work
[6] = test system: experimental allergic encephalomyelitis, a model for multiple sclerosis; conditions: in vivo; cited from earlier work
[7] = test system: tumor; conditions: alone or in combination with picibanil; cited from earlier work
[8] = test system: adjuvant arthritis, a model for rheumatoid arthritis; conditions: in vivo; cited from earlier work
[9] = test system: Candida albicans; conditions: in vitro and in vivo; cited from earlier work
[10] = test system: formation of IgE-like antibodies; conditions: in vivo; cited from earlier work
[11] = 72 h culture with PHA and IL-1, tritiated thymidine incorporation

CO[C@H]1C[C@@H]2CC[C@@H](C)[C@@](O)(O2)C(=O)C(=O)N2CCCC[C@H]2C(=O)O[C@H]([C@H](C)C[C@@H]2CC[C@@H](OC(=O)c3cccnc3C)[C@H](OC)C2)CC(=O)[C@H](C)/C=C(\C)[C@@H](O)[C@@H](OC)C(=O)[C@H](C)C[C@H](C)/C=C/C=C/C=C/1C [Example 1, Rapamycin 42-ester with 2-methylnicotinic acid]
Skin graft survival (mean survival time ± S.D.) [1]: 11.2 ± 0.8 days | Heart allograft survival (mean survival time) [2]: 29.9 days | IC50 [3, 11]: 1000 pM | Percent change in adjuvant arthritis versus control [4]: -88%

CO[C@H]1C[C@@H]2CC[C@@H](C)[C@@](O)(O2)C(=O)C(=O)N2CCCC[C@H]2C(=O)O[C@H]([C@H](C)C[C@@H]2CC[C@@H](OC(=O)c3cccnc3)[C@H](OC)C2)CC(=O)[C@H](C)/C=C(\C)[C@@H](O)[C@@H](OC)C(=O)[C@H](C)C[C@H](C)/C=C/C=C/C=C/1C [Example 2, Rapamycin 42-ester with nicotinic acid]
Skin graft survival (mean survival time ± S.D.) [1]: 9.60 ± 0.89 days | IC50 [3, 11]: 170 pM

CO[C@H]1C[C@@H]2CC[C@@H](C)[C@@](O)(O2)C(=O)C(=O)N2CCCC[C@H]2C(=O)O[C@H]([C@H](C)C[C@@H]2CC[C@@H](OC(=O)c3ccc(C)nc3)[C@H](OC)C2)CC(=O)[C@H](C)/C=C(\C)[C@@H](O)[C@@H](OC)C(=O)[C@H](C)C[C@H](C)/C=C/C=C/C=C/1C [Example 3, Rapamycin 42-ester with 6-methylpyridine-3-carboxylic acid]
Skin graft survival (mean survival time ± S.D.) [1]: 12.5 ± 0.58 days | IC50 [3, 11]: 600 pM | Percent change in adjuvant arthritis versus control [4]: -87%

CO[C@H]1C[C@@H]2CC[C@@H](C)[C@@](O)(O2)C(=O)C(=O)N2CCCC[C@H]2C(=O)O[C@H]([C@H](C)C[C@@H]2CC[C@@H](OC(=O)c3cnc(C)cn3)[C@H](OC)C2)CC(=O)[C@H](C)/C=C(\C)[C@@H](O)[C@@H](OC)C(=O)[C@H](C)C[C@H](C)/C=C/C=C/C=C/1C [Example 4, Rapamycin 42-ester with 5-methylpyrazine-2-carboxylic acid]
Skin graft survival (mean survival time ± S.D.) [1]: 11.33 ± 0.82 days | IC50 [3, 11]: 280 pM | Percent change in adjuvant arthritis versus control [4]: -90%

C=CC[C@@H]1/C=C(\C)C[C@H](C)C[C@H](OC)[C@H]2O[C@@](O)(C(=O)C(=O)N3CCCC[C@H]3C(=O)O[C@H](/C(C)=C/[C@@H]3CC[C@@H](O)[C@H](OC)C3)[C@H](C)[C@@H](O)CC1=O)[C@H](C)C[C@@H]2OC [FK-506]
effective as immunosuppressive agents [5]: effective

CO[C@H]1C[C@@H]2CC[C@@H](C)[C@@](O)(O2)C(=O)C(=O)N2CCCC[C@H]2C(=O)O[C@H]([C@H](C)C[C@@H]2CC[C@@H](O)[C@H](OC)C2)CC(=O)[C@H](C)/C=C(\C)[C@@H](O)[C@@H](OC)C(=O)[C@H](C)C[C@H](C)/C=C/C=C/C=C/1C [rapamycin]
effectiveness in experimental allergic encephalomyelitis model [6]: effective | antitumor activity [7]: antitumor activity | effectiveness in adjuvant arthritis model [8]: effective | antifungal activity [9]: antifungal activity, particularly against Candida albicans, both in vitro and in vivo | inhibition of formation of IgE-like antibodies [10]: effectively inhibited | IC50 ([3]; 72 h): 500 to 1900 pM | less immune induced inflammation than control rats [4]: 70-90%
